The values that follow are results of earlier work, collected in patent US20190298799A1, “CONTROLLED-RELEASE APOPTOSIS MODULATING COMPOSITIONS AND METHODS FOR THE TREATMENT OF OTIC DISORDERS” (Otonomy, Inc., priority 2008, published 2019).

The structures appear in SMILES notation.

The test system of one data set is cochlear culture. To be noted: culture first treated with the inhibitor, then neomycin and/or cisplatin.
The subject of data set [1] is neurons and otic hair cells.

`C[S+]([O-])c1ccc(-c2nc(-c3ccc(F)cc3)c(-c3ccncc3)[nH]2)cc1` (centres unmarked) [SB-203580, 4-(4-Fluorophenyl)-2-(4-methylsulfinylphenyl)-5-(4-pyridyl) 1H-imidazole]: the “apoptosis in cochlear culture” value in the data set on cochlear culture is on record as “apoptosis is decreased”.

Regarding `CC(=O)N[C@@H](CC(C)C)C(=O)N[C@@H](CC(C)C)C(=O)N[C@H](C=O)CCCNC(=N)N` [Leupeptine, leupeptine], the “protection from aminoglycoside ototoxicity” value in data set [1] is “protects neurons and otic hair cells from aminoglycoside ototoxicity”.
